From the NIST ThermoML archive (doi:10.1016/j.jct.2010.09.008)
± gives the expanded uncertainty stated by the source.

How the values were obtained:
[1] = xn = mol fraction of the nth substance listed; conditions: 101.3 kPa, Liquid, Vibrating tube method
[2] = relative permittivity at zero frequency (dimensionless); xn = mol fraction of the nth substance listed; conditions: 101.3 kPa, Liquid, AC Method
[3] = 101.33 kPa, Liquid, Vibrating tube method
[4] = relative permittivity at zero frequency (dimensionless); conditions: 101.33 kPa, Liquid, AC method

## COCCOCCOCCOCCOC [2,5,8,11,14-pentaoxapentadecane] + CCCCCCC
[1]; 288.15 K, x2 = 0.0505
  mass density: 1004.42 ± 0.3 kg/m3
[1]; 288.15 K, x2 = 0.0975
  mass density: 993.3 ± 0.3 kg/m3
[1]; 288.15 K, x2 = 0.1982
  mass density: 968.25 ± 0.3 kg/m3
[1]; 288.15 K, x2 = 0.3
  mass density: 941.07 ± 0.3 kg/m3
[1]; 288.15 K, x2 = 0.4
  mass density: 912.66 ± 0.3 kg/m3
[1]; 288.15 K, x2 = 0.5009
  mass density: 881.97 ± 0.3 kg/m3
[1]; 288.15 K, x2 = 0.6017
  mass density: 848.59 ± 0.3 kg/m3
[1]; 288.15 K, x2 = 0.6931
  mass density: 816.13 ± 0.3 kg/m3
[1]; 288.15 K, x2 = 0.7998
  mass density: 775.06 ± 0.31 kg/m3
[1]; 288.15 K, x2 = 0.8972
  mass density: 734.27 ± 0.31 kg/m3
[1]; 288.15 K, x2 = 0.9466
  mass density: 712.33 ± 0.31 kg/m3
[1]; 298.15 K, x2 = 0.0499
  mass density: 995.11 ± 0.3 kg/m3
[1]; 298.15 K, x2 = 0.0996
  mass density: 983.28 ± 0.3 kg/m3
[1]; 298.15 K, x2 = 0.1995
  mass density: 958.5 ± 0.3 kg/m3
[1]; 298.15 K, x2 = 0.2961
  mass density: 932.8 ± 0.3 kg/m3
[1]; 298.15 K, x2 = 0.4031
  mass density: 902.6 ± 0.3 kg/m3
[1]; 298.15 K, x2 = 0.4975
  mass density: 873.81 ± 0.3 kg/m3
[1]; 298.15 K, x2 = 0.6043
  mass density: 838.65 ± 0.3 kg/m3
[1]; 298.15 K, x2 = 0.6975
  mass density: 805.52 ± 0.3 kg/m3
[1]; 298.15 K, x2 = 0.8006
  mass density: 765.91 ± 0.31 kg/m3
[1]; 298.15 K, x2 = 0.8982
  mass density: 725.23 ± 0.31 kg/m3
[1]; 298.15 K, x2 = 0.948
  mass density: 703.4 ± 0.31 kg/m3
[1]; 308.15 K, x2 = 0.0469
  mass density: 986.65 ± 0.3 kg/m3
[1]; 308.15 K, x2 = 0.0979
  mass density: 974.59 ± 0.3 kg/m3
[1]; 308.15 K, x2 = 0.1976
  mass density: 949.94 ± 0.3 kg/m3
[1]; 308.15 K, x2 = 0.2944
  mass density: 924.23 ± 0.3 kg/m3
[1]; 308.15 K, x2 = 0.3006
  mass density: 922.61 ± 0.3 kg/m3
[1]; 308.15 K, x2 = 0.404
  mass density: 893.13 ± 0.3 kg/m3
[1]; 308.15 K, x2 = 0.4956
  mass density: 865.23 ± 0.3 kg/m3
[1]; 308.15 K, x2 = 0.6018
  mass density: 830.49 ± 0.3 kg/m3
[1]; 308.15 K, x2 = 0.6965
  mass density: 796.89 ± 0.31 kg/m3
[1]; 308.15 K, x2 = 0.7981
  mass density: 758.07 ± 0.31 kg/m3
[1]; 308.15 K, x2 = 0.8986
  mass density: 716.39 ± 0.31 kg/m3
[1]; 308.15 K, x2 = 0.9479
  mass density: 694.69 ± 0.32 kg/m3
[2]; 288.15 K, x2 = 0.0498
  relative permittivity at zero frequency: 7.74 ± 0.15
[2]; 288.15 K, x2 = 0.0999
  relative permittivity at zero frequency: 7.42 ± 0.15
[2]; 288.15 K, x2 = 0.2001
  relative permittivity at zero frequency: 6.79 ± 0.14
[2]; 288.15 K, x2 = 0.3
  relative permittivity at zero frequency: 6.15 ± 0.12
[2]; 288.15 K, x2 = 0.3985
  relative permittivity at zero frequency: 5.52 ± 0.11
[2]; 288.15 K, x2 = 0.5076
  relative permittivity at zero frequency: 4.82 ± 0.1
[2]; 288.15 K, x2 = 0.6033
  relative permittivity at zero frequency: 4.2 ± 0.08
[2]; 288.15 K, x2 = 0.7044
  relative permittivity at zero frequency: 3.58 ± 0.07
[2]; 288.15 K, x2 = 0.8028
  relative permittivity at zero frequency: 2.99 ± 0.06
[2]; 288.15 K, x2 = 0.8985
  relative permittivity at zero frequency: 2.45 ± 0.05
[2]; 288.15 K, x2 = 0.8994
  relative permittivity at zero frequency: 2.45 ± 0.05
[2]; 288.15 K, x2 = 0.9495
  relative permittivity at zero frequency: 2.19 ± 0.04
[2]; 298.15 K, x2 = 0.0496
  relative permittivity at zero frequency: 7.49 ± 0.15
[2]; 298.15 K, x2 = 0.1016
  relative permittivity at zero frequency: 7.19 ± 0.14
[2]; 298.15 K, x2 = 0.1994
  relative permittivity at zero frequency: 6.58 ± 0.13
[2]; 298.15 K, x2 = 0.299
  relative permittivity at zero frequency: 5.97 ± 0.12
[2]; 298.15 K, x2 = 0.406
  relative permittivity at zero frequency: 5.31 ± 0.11
[2]; 298.15 K, x2 = 0.5037
  relative permittivity at zero frequency: 4.7 ± 0.09
[2]; 298.15 K, x2 = 0.6024
  relative permittivity at zero frequency: 4.1 ± 0.08
[2]; 298.15 K, x2 = 0.7027
  relative permittivity at zero frequency: 3.51 ± 0.07
[2]; 298.15 K, x2 = 0.8001
  relative permittivity at zero frequency: 2.95 ± 0.06
[2]; 298.15 K, x2 = 0.9013
  relative permittivity at zero frequency: 2.41 ± 0.05
[2]; 298.15 K, x2 = 0.9499
  relative permittivity at zero frequency: 2.16 ± 0.04
[2]; 308.15 K, x2 = 0.0503
  relative permittivity at zero frequency: 7.25 ± 0.15
[2]; 308.15 K, x2 = 0.1003
  relative permittivity at zero frequency: 6.95 ± 0.14
[2]; 308.15 K, x2 = 0.201
  relative permittivity at zero frequency: 6.36 ± 0.13
[2]; 308.15 K, x2 = 0.2949
  relative permittivity at zero frequency: 5.82 ± 0.12
[2]; 308.15 K, x2 = 0.3924
  relative permittivity at zero frequency: 5.24 ± 0.1
[2]; 308.15 K, x2 = 0.5048
  relative permittivity at zero frequency: 4.58 ± 0.09
[2]; 308.15 K, x2 = 0.6066
  relative permittivity at zero frequency: 3.98 ± 0.08
[2]; 308.15 K, x2 = 0.7117
  relative permittivity at zero frequency: 3.38 ± 0.07
[2]; 308.15 K, x2 = 0.7999
  relative permittivity at zero frequency: 2.9 ± 0.06
[2]; 308.15 K, x2 = 0.8988
  relative permittivity at zero frequency: 2.38 ± 0.05
[2]; 308.15 K, x2 = 0.9491
  relative permittivity at zero frequency: 2.14 ± 0.04

## COCCOCCOCCOC [2,5,8,11-tetraoxadodecane]
[3]; 288.15 K
  mass density: 990.08 ± 0.29 kg/m3
[3]; 298.15 K
  mass density: 980.58 ± 0.29 kg/m3
[3]; 308.15 K
  mass density: 971.07 ± 0.29 kg/m3
[4]; 288.15 K
  relative permittivity at zero frequency: 7.89 ± 0.16
[4]; 298.15 K
  relative permittivity at zero frequency: 7.63 ± 0.15
[4]; 308.15 K
  relative permittivity at zero frequency: 7.38 ± 0.15
